Data from ChEMBL document CHEMBL1143353, “Pyrazolo[1,5-a]-1,3,5-triazine as a purine bioisostere: access to potent cyclin-dependent kinase inhibitor (R)-roscovitine analogue” (J Med Chem, 2009).

What was measured:
[1] = Inhibition of starfish oocytes CDK1/cyclin B; parameters: species or system Marthasterias glacialis; conditions: oocyte
[2] = target: Cyclin-dependent kinase 7/ cyclin H (Homo sapiens, UniProt P50613); assay: Inhibition of human recombinant CDK7/cyclin H expressed in baculovirus-infected insect cells
UACC-257 = assay: Antiproliferative activity against human UACC257 cells after 72 hrs by ViaLight assay; assay type: functional; conditions: UACC-257, 72 h
OVCAR-8 = assay: Antiproliferative activity against human OVCAR8 cells after 72 hrs by ViaLight assay; assay type: functional; conditions: OVCAR-8, 72 h
UO-31 = assay: cells; conditions: Homo sapiens, UO-31, 72 h
Description: Antiproliferative activity against human UO31 cells after 72 hrs by ViaLight assay

cells = conditions: Homo sapiens, HL-60, 72 h
Description: Antiproliferative activity against human HL60(TB) cells after 72 hrs by ViaLight assay

K562 = assay: cells; conditions: Homo sapiens, K562, 72 h
Description: Antiproliferative activity against human K562 cells after 72 hrs by ViaLight assay

MOLT-4 = assay: cells; conditions: Homo sapiens, MOLT-4, 72 h
Description: Antiproliferative activity against human MOLT4 cells after 72 hrs by ViaLight assay

SR = assay: cells; conditions: Homo sapiens, 72 h
Description: Antiproliferative activity against human SR cells after 72 hrs by ViaLight assay

A549 = assay: cells; conditions: Homo sapiens, A549, 72 h
Description: Antiproliferative activity against human A549 cells after 72 hrs by ViaLight assay

HOP-92 = assay: cells; conditions: Homo sapiens, HOP-92, 72 h
Description: Antiproliferative activity against human HOP92 cells after 72 hrs by ViaLight assay

NCI-H226 = assay: cells; conditions: Homo sapiens, NCI-H226, 72 h
Description: Antiproliferative activity against human NCI-H226 cells after 72 hrs by ViaLight assay

NCI-H322M = assay: cells; conditions: Homo sapiens, 72 h
Description: Antiproliferative activity against human NCI-H322M cells after 72 hrs by ViaLight assay

COLO 205 = assay: cells; conditions: Homo sapiens, COLO 205, 72 h
Description: Antiproliferative activity against human COLO205 cells after 72 hrs by ViaLight assay

HT-29 = assay: cells; conditions: Homo sapiens, HT-29, 72 h
Description: Antiproliferative activity against human HT29 cells after 72 hrs by ViaLight assay

KM12 = assay: cells; conditions: Homo sapiens, KM12, 72 h
Description: Antiproliferative activity against human KM12 cells after 72 hrs by ViaLight assay

[3] = read-out: LC50 (the source's name)
[4] = read-out: pLC50 (the source's name) (converted)

Sequence of Cyclin-dependent kinase 7/ cyclin H (P51946 whole entry): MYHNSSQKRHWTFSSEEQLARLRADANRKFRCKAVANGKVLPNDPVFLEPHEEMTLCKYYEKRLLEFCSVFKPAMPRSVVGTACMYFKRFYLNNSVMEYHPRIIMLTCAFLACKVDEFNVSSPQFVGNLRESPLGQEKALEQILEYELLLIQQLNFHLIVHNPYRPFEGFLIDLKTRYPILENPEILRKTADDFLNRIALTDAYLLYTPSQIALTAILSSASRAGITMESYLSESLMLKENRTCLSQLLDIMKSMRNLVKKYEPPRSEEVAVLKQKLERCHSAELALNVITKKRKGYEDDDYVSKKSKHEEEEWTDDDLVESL
Sequence of Cyclin-dependent kinase 7/ cyclin H (P50613 whole entry): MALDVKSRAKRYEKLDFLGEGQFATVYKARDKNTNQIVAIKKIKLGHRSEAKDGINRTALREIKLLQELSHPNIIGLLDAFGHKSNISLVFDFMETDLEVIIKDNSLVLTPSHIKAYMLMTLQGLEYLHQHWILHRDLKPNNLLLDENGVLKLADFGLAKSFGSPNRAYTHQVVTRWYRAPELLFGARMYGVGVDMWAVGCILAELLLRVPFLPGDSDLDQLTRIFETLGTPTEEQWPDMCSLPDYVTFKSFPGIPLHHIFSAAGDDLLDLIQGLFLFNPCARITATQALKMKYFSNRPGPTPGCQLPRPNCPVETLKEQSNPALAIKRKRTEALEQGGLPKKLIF

`CC[C@H](CO)Nc1nc(NCc2ccccc2)n2ncc(C(C)C)c2n1` showed an IC50 [1] of 0.073 µM, an IC50 [2] of 0.5 µM and a GI50 (UACC-257; read-out: GI50) of 3.56 µM. For the same compound, the CC50 (UACC-257; [3]) was greater than 100 µM, the TGI (UACC-257; read-out: TGI) was 15 µM and the GI50 (UACC-257; read-out: pGI50 (converted)) was 3.24 µM. For the same compound, the CC50 (UACC-257; [4]) was 100 µM, the TGI (UACC-257; read-out: pTGI (converted)) was 24 µM and the GI50 (OVCAR-8; read-out: GI50) was 2.15 µM. It also gave a CC50 (OVCAR-8; [3]) greater than 100 µM, a TGI (OVCAR-8; read-out: TGI) of 54.8 µM and a GI50 (OVCAR-8; read-out: pGI50 (converted)) of 2.45 µM. It also gave a CC50 (OVCAR-8; [4]) of 100 µM, a TGI (OVCAR-8; read-out: pTGI (converted)) of 55 µM and a GI50 (UO-31) of 1.59 µM. The TGI (UO-31) was greater than 100 µM, the GI50 (UO-31; read-out: pGI50 (converted)) was 1.58 µM and the TGI (UO-31; read-out: pTGI) was 100 µM. The GI50 (cells) was 0.41 µM, the TGI (cells) was 2.68 µM and the CC50 (cells; read-out: LC50) was greater than 100 µM. For the same compound, the GI50 (cells; read-out: pGI50 (converted)) was 0.407 µM, the CC50 (cells; read-out: pLC50 (converted)) was 100 µM and the TGI (cells; read-out: pTGI) was 2.69 µM. For the same compound, the GI50 (K562) was 2.44 µM, the TGI (K562) was 7.38 µM and the CC50 (K562; read-out: LC50) was greater than 100 µM. For the same compound, the GI50 (K562; read-out: pGI50 (converted)) was 2.45 µM, the CC50 (K562; read-out: pLC50 (converted)) was 100 µM and the TGI (K562; read-out: pTGI) was 7.41 µM. The GI50 (MOLT-4) was 2.18 µM, the TGI (MOLT-4) was 9.45 µM and the CC50 (MOLT-4; read-out: LC50) was greater than 100 µM. For the same compound, the GI50 (MOLT-4; read-out: pGI50 (converted)) was 2.19 µM, the CC50 (MOLT-4; read-out: pLC50 (converted)) was 100 µM and the TGI (MOLT-4; read-out: pTGI) was 9.55 µM. It also gave a GI50 (SR) of 0.25 µM, a TGI (SR) of 1.59 µM and a CC50 (SR; read-out: LC50) greater than 100 µM. It also gave a GI50 (SR; read-out: pGI50 (converted)) of 2.51 µM, a CC50 (SR; read-out: pLC50 (converted)) of 100 µM and a TGI (SR; read-out: pTGI) of 1.58 µM. It also gave a GI50 (A549) of 1.58 µM, a TGI (A549) of 41.4 µM and a CC50 (A549; read-out: LC50) greater than 100 µM. It also gave a GI50 (A549; read-out: pGI50 (converted)) of 2.51 µM, a CC50 (A549; read-out: pLC50 (converted)) of 100 µM and a TGI (A549; read-out: pTGI) of 41.7 µM. The GI50 (HOP-92) was 1.67 µM, the TGI (HOP-92) was 7.1 µM and the CC50 (HOP-92; read-out: LC50) was greater than 100 µM. For the same compound, the GI50 (HOP-92; read-out: pGI50 (converted)) was 1.66 µM, the CC50 (HOP-92; read-out: pLC50 (converted)) was 100 µM and the TGI (HOP-92; read-out: pTGI) was 7.08 µM. It also gave a GI50 (NCI-H226) of 1.84 µM, a TGI (NCI-H226) of 10.1 µM and a CC50 (NCI-H226; read-out: LC50) greater than 100 µM. For the same compound, the GI50 (NCI-H226; read-out: pGI50 (converted)) was 1.86 µM, the CC50 (NCI-H226; read-out: pLC50 (converted)) was 100 µM and the TGI (NCI-H226; read-out: pTGI) was 10.5 µM. The GI50 (NCI-H322M) was 1.86 µM, the TGI (NCI-H322M) was 8.92 µM and the CC50 (NCI-H322M; read-out: LC50) was greater than 100 µM. For the same compound, the GI50 (NCI-H322M; read-out: pGI50 (converted)) was 1.86 µM, the CC50 (NCI-H322M; read-out: pLC50 (converted)) was 100 µM and the TGI (NCI-H322M; read-out: pTGI) was 8.91 µM. The GI50 (COLO 205) was 1.12 µM, the TGI (COLO 205) was 3.15 µM and the CC50 (COLO 205; read-out: LC50) was 8.86 µM. It also gave a GI50 (COLO 205; read-out: pGI50 (converted)) of 1.12 µM, a CC50 (COLO 205; read-out: pLC50 (converted)) of 8.71 µM and a TGI (COLO 205; read-out: pTGI) of 3.16 µM. For the same compound, the GI50 (HT-29) was 2 µM, the TGI (HT-29) was 15.5 µM and the CC50 (HT-29; read-out: LC50) was greater than 100 µM. For the same compound, the GI50 (HT-29; read-out: pGI50 (converted)) was 2 µM, the CC50 (HT-29; read-out: pLC50 (converted)) was 100 µM and the TGI (HT-29; read-out: pTGI) was 15.5 µM. For the same compound, the GI50 (KM12) was 0.71 µM, the TGI (KM12) was 2.79 µM and the CC50 (KM12; read-out: LC50) was 9.3 µM.
